Reference: patent US20140121236A1, “Compositions and Methods for Treating Myotonic Dystrophy Type 1” (UNIVERSITY OF SOUTHERN CALIFORNIA, priority 2012, published 2014)

Experiments:
[1] = tested on: CUG-RNA foci in DM1 myoblasts; assay: FISH analysis of nuclear CUG-RNA foci in DM1 myoblasts; format: cell-based, human; conditions: 4 days
Experimental: DM1 myoblasts were then treated with 10 μM of either RCN-001 or the vehicle (DMSO) for 4 days and then examined by FISH using a Cy3 (CAG)10 probe.
Normal myoblasts were purchased from Lonza, Inc. DM1 myoblasts were a gift from Dr. Charles Thornton. Normal and DM1 myoblasts were maintained in SkGM Medium (Lonza, Inc.) containing 10% Fetal Bovine Serum and 1% Penicillin-Streptomycin, 5% CO2 at 37° C. Human Embryonic Kidney 293 Cells (293HEK) were maintained in Dulbecco's Modification of Eagle's Medium (DMEM) from Cellgro supplemented with 10% Fetal Bovine Serum and 1% Penicillin-Streptomycin, 5% CO2 at 37° C.
(§1) CUG-RNA foci were detected by performing FISH on untreated DM1 myoblasts and DM1 myoblasts following treatment. For FISH analysis, DM1 myoblasts were plated on a 24-well clear bottom polystyrene plate with circular glass coverslips followed by treatment. Prior to FISH analysis, cells were fixed using 4% paraformaldehyde in 1×PBS for 20 min at room temperature. FISH analysis was performed using a Cy3 conjugated (CAG)10 oligonucleotide probe (Integrated DNA Technologies, Inc.) as described by Taneja et al, 1995 and Dansithong et al, 2005. CUG-RNA foci were observed as a red signal using fluorescence microscopy. Immunofluorescence was performed as described by Dansithong et al, 2008. Endogenous SHARP was detected using SHARP polyclonal antibodies from Bethyl at a dilution of 1:1000. The secondary antibodies conjugated with FITC (Invitrogen) were used at a 1:2000 dilution. Chloride channel 1 (Clcn1 a.k.a. CIC-1) was detected using CIC-1 polyclonal antibodies from Santa Cruz. The secondary antibodies conjugated with Alexa Flour 488 (Invitrogen) were used at a 1:2000 dilution. FISH analysis in mouse muscle section was carried out as described in Mancodi et al, 2000 (9).

HSALR mice = assay: Myotonic runs recorded in muscle of treated HSALR mice; format: in vivo; conditions: gastrocnemius muscle, 40 mg/kg IP once a day for 14 days, p<0.05 vs vehicle
Excerpt: (§2) For all animals the recording electrode was inserted into the test muscle 20 times. The number of myotonic runs ≧1 second in the gastrocnemius muscle of individual HSA^LR mice treated with either the saline control or RCN-001 are shown.
(§3) Importantly, RCN-001 reduces the number of myotonic runs of ≧1 second (p<0.05) (FIG. 5), total time of myotonic runs ≧1 sec (4.04 s±2.9 vehicle; 0.99 s±1.4 RCN-001; p<0.05) and length of the longest run (1.96 s±0.97 vehicle; 0.73 s±0.71 RCN-001; p<0.05) in the gastrocnemius muscle of HSA^LR mice. […] Methods are detailed in the legend of FIG. 5.
Treatment in HSALR mice. The HSALR transgenic mice expressing (CTG)250 in the 3′UTR of the human skeletal actin mRNA as described in Mankodi et al, 2000 were utilized for this study (a generous gift from Dr. Charles Thornton). Treatment in mice was done by intraperitoneal injection using 40 mg/kg once a day for 7 or 14 days of RCN-001 or vehicle alone. Total RNA was isolated from skeletal muscle of treated HSALR mice using Trizole (Invitrogen, USA) following the manufacture's protocol. cDNA synthesis and PCR was performed as described in Dansithong et al, 2008. PCR amplification was carried out with the following primers—

Clcn1 = assay: Anti-Clcn1 staining of gastrocnemius muscle sections of HSALR mice; format: in vivo; conditions: 14 days treatment
Excerpt: as §2, §3
as §1, with “Immunofluorescence was performed as described by Dansithong et al, 2008.” left out, “The secondary antibodies conjugated with FITC (Invitrogen) were used at a 1:2000 dilution.” left out, “The secondary antibodies conjugated with Alexa Flour 488 (Invitrogen) were used at a 1:2000 dilution. FISH analysis in mouse muscle section was carried out as described in Mancodi et al, 2000 (9).” left out

[2] = tested on: CUG-RNA foci in DM1 myoblasts; assay: FISH analysis of nuclear CUG-RNA foci in DM1 myoblasts; format: cell-based, human; conditions: 2 μM, 4 days (not shown)

SMILES: CCCCCCc1cc2cc(-c3nnc(-c4cccc(OC)c4)o3)c(=O)oc2cc1O [RCN-001]
- decrease in cells containing 3 or more foci ([1]; 10 μM, vs vehicle (DMSO)): ~5 fold
- increase in cells containing no foci ([1]; 10 μM, vs vehicle (DMSO)): ~10 fold
- # of Foci (percentage) 0-1: Percentage of cells with no or 1 nuclear foci ([1]; Table 1, 10 μM, FISH): 48 percentage
- # of Foci (percentage) >2: Percentage of cells with 2 or greater nuclear foci ([1]; Table 1, 10 μM, FISH): 52 percentage
- number of myotonic runs of ≧1 second (HSALR mice): reduces
- chloride channel (Clcn1) levels (Clcn1): re-establish normal chloride channel levels
- decrease in cells containing 3 or more foci [2]: 2 fold
- increase in cells containing no foci [2]: 5 fold
